Reference: patent US10273248B2, “Glucose uptake inhibitors” (Kadmon Corporation LLC, priority 2015, dated 2019)
Where a name gives a salt, the structure may show the parent alone.

Test system: glycolysis in HT1080 cells
Assay: Glycolysis assay: oligomycin plus compound, cellular ATP by Cell Titer Glo
Type: cell-based
Details: 10 μM oligomycin, one hour, class symbols
Description: Therefore, an assay was developed that utilizes the combination of the glucose uptake inhibitors disclosed herein with oligomycin, a well-characterized inhibitor of ATP synthase. Because oligomycin inhibits ATP derived from oxidative phosphorylation, any remaining ATP production is derived from glycolysis. By reading out cellular ATP levels using the Promega Cell Titer Glo kit, the extent of glycolysis inhibition by the glucose uptake inhibitors disclosed herein can be assessed. […] Utilizing this experimental set-up, the IC50 of glycolysis inhibition for each compound can be determined.
Determination of Glucose Uptake/GLUT Activity (Glycolysis Assay):
HT1080 cells (as well as other cell types) were plated to confluency in 96-well plates. Cells were exposed to the combination of 10 μM Oligomycin (to block mitochondrial-derived ATP) and the glucose uptake inhibitors disclosed herein for one-hour, after which glycolytically-derived ATP was measured with the Cell Titer-Glo assay kit (Promega). Dose-response curves of the glucose uptake inhibitors disclosed herein were used to determine the IC50 for GLUT activity.

IC50 [nM]	IC50 (Homo sapiens, HT-1080, 1 h) [nM]	Compound
10 to 100		O=C(Nc1cccc(-c2nc(Nc3ccc(-c4cn[nH]c4)cc3)c3sccc3n2)c1)c1cccnc1 [Example 178, N-(3-(4-((4-(1H-pyrazol-4-yl)phenyl)amino)thieno[3,2-d]pyrimidin-2-yl)phenyl)nicotinamide]
	10 to 100	CCC(C)NC(=O)COc1cccc(-c2nc3c(c(Nc4ccc(-c5cn[nH]c5)cc4)n2)COCC3)c1 (centres unmarked) [Example 103, 2-(3-(4-((4-(1H-pyrazol-4-yl)phenyl)amino)-7,8-dihydro-5H-pyrano[4,3-d]pyrimidin-2-yl)phenoxy)-N-(sec-butyl)acetamide]
	> 1000	COCCOc1cccc(-c2nc3c(c(Nc4ccc(-c5cn[nH]c5)cc4)n2)COCC3)c1 [Example 127, N-(4-(1H-pyrazol-4-yl)phenyl)-2-(3-(2-methoxyethoxy)phenyl)-7,8-dihydro-5H-pyrano[4,3-d]pyrimidin-4-amine]
	> 1000	CC(C)CNC(=O)COc1cccc(-c2nc(Nc3ccc(-c4cn[nH]c4)cc3)c3c(cnn3C)n2)c1 [Example 61, 2-(3-(7-((4-(1H-pyrazol-4-yl)phenyl)amino)-1-methyl-1H-pyrazolo[4,3-d]pyrimidin-5-yl)phenoxy)-N-isobutylacetamide]
	10 to 100	CCC(CC)NC(=O)COc1cccc(-c2nc(Nc3ccc(-c4cn[nH]c4)cc3)c3ccncc3n2)c1 [Example 137, 2-(3-(4-((4-(1H-pyrazol-4-yl)phenyl)amino)pyrido[3,4-d]pyrimidin-2-yl)phenoxy)-N-(pentan-3-yl)acetamide dihydrochloride]
	10 to 100	O=C(Nc1cccc(-c2nc3c(c(Nc4ccc(-c5cn[nH]c5)cc4)n2)COC3)c1)c1cncc(F)c1 [Example 75, N-(3-(4-((4-(1H-pyrazol-4-yl)phenyl)amino)-5,7-dihydrofuro[3,4-d]pyrimidin-2-yl)phenyl)-5-fluoronicotinamide]
	10 to 100	Cc1cncc(C(=O)Nc2cccc(-c3nc4c(c(Nc5ccc(-c6cn[nH]c6)cc5)n3)COC4)c2)c1 [Example 73, N-(3-(4-((4-(1H-pyrazol-4-yl)phenyl)amino)-5,7-dihydrofuro[3,4-d]pyrimidin-2-yl)phenyl)-5-methylnicotinamide]
	> 1000	O=C(CN1CCOCC1)Nc1cccc(-c2nc3c(c(Nc4ccc(-c5cn[nH]c5)cc4)n2)COC3)c1 [Example 2, N-(3-(4-((4-(1H-pyrazol-4-yl)phenyl)amino)-5,7-dihydrofuro[3,4-d]pyrimidin-2-yl)phenyl)-2-morpholinoacetamide]
	501 to 1000	CCC(CC)NC(=O)COc1cccc(-c2nc3c(c(Nc4ccc(-c5cn[nH]c5)cc4)n2)CN(CC)CC3)c1 [Example 118, 2-(3-(4-((4-(1H-pyrazol-4-yl)phenyl)amino)-6-ethyl-5,6,7,8-tetrahydropyrido[4,3-d]pyrimidin-2-yl)phenoxy)-N-(pentan-3-yl)acetamide]
	10 to 100	CC(C)(C)NC(=O)COc1cccc(-c2nc(Nc3ccc(-c4cn[nH]c4)cc3)c3cnccc3n2)c1 [Example 135, 2-(3-(4-((4-(1H-pyrazol-4-yl)phenyl)amino)pyrido[4,3-d]pyrimidin-2-yl)phenoxy)-N-(tert-butyl)acetamide]
	> 1000	Cc1ccc(CNc2cccc(-c3nc4c(c(Nc5ccc(-c6cn[nH]c6)cc5)n3)COC4)c2)cn1 [Example 91, N-(4-(1H-pyrazol-4-yl)phenyl)-2-(3-(((6-methylpyridin-3-yl)methyl)amino)phenyl)-5,7-dihydrofuro[3,4-d]pyrimidin-4-amine]
	101 to 250	O=C(COc1cccc(-c2nc(Nc3ccc(-c4cn[nH]c4)cc3)c3ncccc3n2)c1)NC1CCC1 [Example 49, 2-(3-(4-((4-(1H-pyrazol-4-yl)phenyl)amino)pyrido[3,2-d]pyrimidin-2-yl)phenoxy)-N-cyclobutylacetamide]
	10 to 100	O=C(Nc1cccc(-c2nc3c(c(Nc4ccc(-c5cn[nH]c5)cc4)n2)COC3)c1)c1ccccn1 [Example 177, N-(3-(4-((4-(1H-pyrazol-4-yl)phenyl)amino)-5,7-dihydrofuro[3,4-d]pyrimidin-2-yl)phenyl)picolinamide]
	> 1000	O=C(Nc1cccc(-c2nc(Nc3ccc(-c4cn[nH]c4)cc3)c3sccc3n2)c1)c1ccccn1 [Example 176, N-(3-(4-((4-(1H-pyrazol-4-yl)phenyl)amino)thieno[3,2-d]pyrimidin-2-yl)phenyl)picolinamide]
	251 to 500	Cn1cnc2c(Nc3ccc(-c4cn[nH]c4)cc3)nc(-c3cccc(OCC(=O)NC4CCC4)c3)nc21 [Example 29]
	> 1000	CC(C)NC(=O)COc1cc(F)cc(-c2nc(Nc3ccc(-c4cn[nH]c4)cc3)c3sccc3n2)c1 [Example 34]

IC50 [nM]	IC50 (Homo sapiens, HT-1080, 1 h) [nM]	Compound
	501 to 1000	CC(C(=O)Nc1cccc(-c2nc3c(c(Nc4ccc(-c5cn[nH]c5)cc4)n2)COC3)c1)N1CCOCC1 (centres unmarked) [Example 171, N-(3-(4-((4-(1H-pyrazol-4-yl)phenyl)amino)-5,7-dihydrofuro[3,4-d]pyrimidin-2-yl)phenyl)-2-morpholinopropanamide]
	10 to 100	O=C(COc1cccc(-c2nc(Nc3ccc(-c4cn[nH]c4)cc3)c3ccncc3n2)c1)NC1CCC1 [Example 63, 2-(3-(4-((4-(1H-pyrazol-4-yl)phenyl)amino)pyrido[3,4-d]pyrimidin-2-yl)phenoxy)-N-cyclobutylacetamide]
	101 to 250	O=C(COc1cccc(-c2nc(Nc3ccc(-c4cn[nH]c4)cc3)c3ncsc3n2)c1)NC1CCCC1 [Example 67, 2-(3-(7-((4-(1H-pyrazol-4-yl)phenyl)amino)thiazolo[5,4-d]pyrimidin-5-yl)phenoxy)-N-cyclopentylacetamide]
	101 to 250	CC(C)(C)NC(=O)COc1cccc(-c2nc(Nc3ccc(-c4cn[nH]c4)cc3)c3sccc3n2)c1 [Example 110, 2-(3-(4-((4-(1H-pyrazol-4-yl)phenyl)amino)thieno[3,2-d]pyrimidin-2-yl)phenoxy)-N-(tert-butyl)acetamide]
	10 to 100	CCC(C)(C)NC(=O)COc1cccc(-c2nc3c(c(Nc4ccc(-c5cn[nH]c5)cc4)n2)CN(C(=O)C(C)C)CC3)c1 [Example 156, 2-(3-(4-((4-(1H-pyrazol-4-yl)phenyl)amino)-6-isobutyryl-5,6,7,8-tetrahydropyrido[4,3-d]pyrimidin-2-yl)phenoxy)-N-(tert-pentyl)acetamide]
	10 to 100	O=C(COc1cccc(-c2nc3c(c(Nc4ccc(-c5cn[nH]c5)cc4)n2)COCC3)c1)NC1CCCC1 [Example 108, 2-(3-(4-((4-(1H-pyrazol-4-yl)phenyl)amino)-7,8-dihydro-5H-pyrano[4,3-d]pyrimidin-2-yl)phenoxy)-N-cyclopentylacetamide]
	501 to 1000	CCC(CC)NC(=O)COc1cc(F)cc(-c2nc3c(c(Nc4ccc(-c5cn[nH]c5)cc4)n2)COC3)c1 [Example 88, 2-(3-(4-((4-(1H-pyrazol-4-yl)phenyl)amino)-5,7-dihydrofuro[3,4-d]pyrimidin-2-yl)-5-fluorophenoxy)-N-(pentan-3-yl)acetamide]
	> 1000	CCC(C)NC(=O)C(C)Oc1cccc(-c2nc3c(c(Nc4ccc(-c5cn[nH]c5)cc4)n2)COC3)c1 (centres unmarked) [Example 187, 2-(3-(4-((4-(1H-pyrazol-4-yl)phenyl)amino)-5,7-dihydrofuro[3,4-d]pyrimidin-2-yl)phenoxy)-N-(sec-butyl)propanamide]
	101 to 250	CC(C(=O)Nc1cccc(-c2nc(Nc3ccc(-c4cn[nH]c4)cc3)c3occc3n2)c1)N1CCOCC1 (centres unmarked) [Example 172, N-(3-(4-((4-(1H-pyrazol-4-yl)phenyl)amino)furo[3,2-d]pyrimidin-2-yl)phenyl)-2-morpholinopropanamide]
	251 to 500	CC(C)NC(=O)COc1cccc(-c2nc(Nc3ccc(-c4cn[nH]c4)cc3)c3ncsc3n2)c1 [Example 65, 2-(3-(7-((4-(1H-pyrazol-4-yl)phenyl)amino)thiazolo[5,4-d]pyrimidin-5-yl)phenoxy)-N-isopropylacetamide]
	251 to 500	CC(C)NC(=O)COc1cccc(-c2nc(Nc3ccc(-c4cn[nH]c4)cc3)c3occc3n2)c1 [Example 3, 2-(3-(4-((4-(1H-pyrazol-4-yl)phenyl)amino)furo[3,2-d]pyrimidin-2-yl)phenoxy)-N-isopropylacetamide]
	10 to 100	O=C(COc1cccc(-c2nc(Nc3ccc(-c4cn[nH]c4)cc3)c3ncccc3n2)c1)NC1CCCC1 [Example 51, 2-(3-(4-((4-(1H-pyrazol-4-yl)phenyl)amino)pyrido[3,2-d]pyrimidin-2-yl)phenoxy)-N-cyclopentylacetamide]
	10 to 100	O=C(COc1cccc(-c2nc(Nc3ccc(-c4cn[nH]c4)cc3)c3ccncc3n2)c1)NC1CCCCC1 [Example 138, 2-(3-(4-((4-(1H-pyrazol-4-yl)phenyl)amino)pyrido[3,4-d]pyrimidin-2-yl)phenoxy)-N-cyclohexylacetamide dihydrochloride]
	> 1000	CNC(=O)COc1cccc(-c2nc(Nc3ccc(-c4cn[nH]c4)cc3)c3sccc3n2)c1 [Example 40, 2-(3-(4-((4-(1H-pyrazol-4-yl)phenyl)amino)thieno[3,2-d]pyrimidin-2-yl)phenoxy)-N-methylacetamide]
	501 to 1000	Clc1cncc(CNc2cccc(-c3nc4c(c(Nc5ccc(-c6cn[nH]c6)cc5)n3)COC4)c2)c1 [Example 93, N-(4-(1H-pyrazol-4-yl)phenyl)-2-(3-(((5-chloropyridin-3-yl)methyl)amino)phenyl)-5,7-dihydrofuro[3,4-d]pyrimidin-4-amine]
	10 to 100	CCC(CC)NC(=O)COc1cccc(-c2nc3c(c(Nc4ccc(-c5cn[nH]c5)cc4)n2)CN(C(C)=O)C3)c1 [Example 141, 2-(3-(4-((4-(1H-pyrazol-4-yl)phenyl)amino)-6-acetyl-6,7-dihydro-5H-pyrrolo[3,4-d]pyrimidin-2-yl)phenoxy)-N-(pentan-3-yl)acetamide]
